Reference: the kinase profiling compilation of Christmann-Franck et al. (2016)

Key:
Assay in all cases: KINOMEscan competition binding
Conditions in all cases: compound 10.0 µM
CDKL5 (human) = CDKL5 (human) (UniProt O76039)
SRC (human) = SRC (human) (UniProt P12931)
MYLK (human) = MYLK (human) (UniProt Q15746)
MAP4K2 (human) = MAP4K2 (human) (UniProt Q12851)
[1] = target: JAK1 JH2 pseudokinase (human) (UniProt P23458)
PRKX (human) = PRKX (human) (UniProt P51817)
CDK7 (human) = CDK7 (human) (UniProt P50613)
PI4KB (human) = PI4KB (human) (UniProt Q9UBF8)
EPHA5 (human) = EPHA5 (human) (UniProt P54756)
STK17B (human) = STK17B (human) (UniProt O94768)
MAPKAPK5 (human) = MAPKAPK5 (human) (UniProt Q8IW41)
ERBB3 (human) = ERBB3 (human) (UniProt P21860)
CSNK2A2 (human) = CSNK2A2 (human) (UniProt P19784)
STK39 (human) = STK39 (human) (UniProt Q9UEW8)
ACVR2B (human) = ACVR2B (human) (UniProt Q13705)
Chain of ACVR2B (human) (Q13705 whole entry, looked up): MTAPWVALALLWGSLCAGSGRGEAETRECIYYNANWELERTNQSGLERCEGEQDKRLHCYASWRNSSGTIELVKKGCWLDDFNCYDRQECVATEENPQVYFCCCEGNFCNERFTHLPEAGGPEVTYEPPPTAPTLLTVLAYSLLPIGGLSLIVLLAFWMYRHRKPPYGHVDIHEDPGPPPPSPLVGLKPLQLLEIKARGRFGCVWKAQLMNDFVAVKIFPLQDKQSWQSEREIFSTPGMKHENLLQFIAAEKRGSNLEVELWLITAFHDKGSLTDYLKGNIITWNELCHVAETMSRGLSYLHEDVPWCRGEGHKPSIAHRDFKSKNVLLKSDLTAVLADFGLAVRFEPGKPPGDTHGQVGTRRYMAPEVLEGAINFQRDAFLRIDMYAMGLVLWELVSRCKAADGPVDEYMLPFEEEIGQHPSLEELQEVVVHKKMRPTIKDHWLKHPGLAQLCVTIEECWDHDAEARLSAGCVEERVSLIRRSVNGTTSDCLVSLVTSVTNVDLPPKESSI

[2] = tested on: RET (human), P07949 [V804M]
Chain of RET (human), P07949 [V804M] (P07949 whole entry V804M, looked up): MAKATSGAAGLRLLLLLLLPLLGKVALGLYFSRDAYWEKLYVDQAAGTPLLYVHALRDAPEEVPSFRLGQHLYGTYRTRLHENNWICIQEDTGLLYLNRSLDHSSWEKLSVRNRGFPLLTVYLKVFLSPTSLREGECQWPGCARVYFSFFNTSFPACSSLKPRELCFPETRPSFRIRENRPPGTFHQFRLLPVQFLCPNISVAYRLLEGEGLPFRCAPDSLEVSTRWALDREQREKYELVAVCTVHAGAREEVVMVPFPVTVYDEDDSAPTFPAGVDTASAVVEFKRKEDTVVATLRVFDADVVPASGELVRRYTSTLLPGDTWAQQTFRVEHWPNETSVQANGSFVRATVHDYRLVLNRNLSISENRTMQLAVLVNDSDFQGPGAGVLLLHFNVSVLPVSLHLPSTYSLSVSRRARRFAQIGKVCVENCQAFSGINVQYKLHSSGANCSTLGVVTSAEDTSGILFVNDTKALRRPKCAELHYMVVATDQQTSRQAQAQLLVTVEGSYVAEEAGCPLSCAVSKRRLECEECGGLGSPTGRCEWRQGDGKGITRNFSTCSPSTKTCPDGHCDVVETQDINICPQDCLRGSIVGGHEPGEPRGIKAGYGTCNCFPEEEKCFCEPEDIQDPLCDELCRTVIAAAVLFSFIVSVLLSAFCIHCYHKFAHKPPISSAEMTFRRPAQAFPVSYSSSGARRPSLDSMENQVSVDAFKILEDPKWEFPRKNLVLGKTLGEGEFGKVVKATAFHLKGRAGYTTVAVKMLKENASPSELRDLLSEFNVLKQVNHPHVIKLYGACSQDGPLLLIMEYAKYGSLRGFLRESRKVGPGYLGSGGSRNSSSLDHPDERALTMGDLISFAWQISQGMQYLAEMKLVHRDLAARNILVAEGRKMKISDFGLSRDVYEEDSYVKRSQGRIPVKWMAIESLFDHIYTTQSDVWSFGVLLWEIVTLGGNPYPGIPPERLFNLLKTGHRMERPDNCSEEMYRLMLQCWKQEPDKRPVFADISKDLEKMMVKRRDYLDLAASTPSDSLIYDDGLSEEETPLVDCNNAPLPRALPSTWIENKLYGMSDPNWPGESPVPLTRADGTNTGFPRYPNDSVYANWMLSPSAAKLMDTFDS

EIF2AK1 (human) = EIF2AK1 (human) (UniProt Q9BQI3)
MAP4K1 (human) = MAP4K1 (human) (UniProt Q92918)
NTRK2 (human) = NTRK2 (human) (UniProt Q16620)
CSNK1D (human) = CSNK1D (human) (UniProt P48730)
OXSR1 (human) = OXSR1 (human) (UniProt O95747)
[3] = tested on: EGFR (human), P00533 [T790M]
DCLK3 (human) = DCLK3 (human) (UniProt Q9C098)
Chain of DCLK3 (human) (Q9C098 whole entry, looked up): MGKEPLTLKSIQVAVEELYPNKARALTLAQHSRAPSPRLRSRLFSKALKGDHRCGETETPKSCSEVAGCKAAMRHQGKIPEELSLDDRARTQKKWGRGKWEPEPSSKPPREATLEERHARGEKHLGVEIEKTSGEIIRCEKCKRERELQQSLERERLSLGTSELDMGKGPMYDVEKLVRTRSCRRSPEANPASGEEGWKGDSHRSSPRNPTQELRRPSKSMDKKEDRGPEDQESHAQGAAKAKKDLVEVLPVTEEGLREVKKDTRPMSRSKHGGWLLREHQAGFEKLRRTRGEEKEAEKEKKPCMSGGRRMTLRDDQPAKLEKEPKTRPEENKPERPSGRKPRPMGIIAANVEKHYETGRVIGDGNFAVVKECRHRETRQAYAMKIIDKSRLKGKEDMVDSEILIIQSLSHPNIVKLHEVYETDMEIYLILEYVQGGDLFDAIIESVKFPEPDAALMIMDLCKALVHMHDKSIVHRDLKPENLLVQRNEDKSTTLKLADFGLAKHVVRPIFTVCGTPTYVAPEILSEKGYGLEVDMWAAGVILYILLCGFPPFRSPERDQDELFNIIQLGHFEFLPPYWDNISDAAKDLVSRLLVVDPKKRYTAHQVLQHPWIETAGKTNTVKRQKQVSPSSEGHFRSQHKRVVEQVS

NEK4 (human) = NEK4 (human) (UniProt P51957)
AURKA (human) = AURKA (human) (UniProt O14965)
Chain of AURKA (human) (O14965 whole entry, looked up): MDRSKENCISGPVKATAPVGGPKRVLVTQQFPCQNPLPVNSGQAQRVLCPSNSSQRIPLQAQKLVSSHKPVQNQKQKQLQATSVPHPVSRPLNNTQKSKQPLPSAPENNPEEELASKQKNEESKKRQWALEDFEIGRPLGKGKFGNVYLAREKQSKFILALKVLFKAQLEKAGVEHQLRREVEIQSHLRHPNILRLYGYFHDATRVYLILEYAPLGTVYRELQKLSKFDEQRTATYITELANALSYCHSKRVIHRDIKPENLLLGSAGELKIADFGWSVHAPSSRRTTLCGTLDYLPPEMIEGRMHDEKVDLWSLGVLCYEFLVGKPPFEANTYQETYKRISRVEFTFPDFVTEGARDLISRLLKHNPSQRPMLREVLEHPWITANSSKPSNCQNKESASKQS

ADCK4 (human) = ADCK4 (human) (UniProt Q96D53)
RAF1 (human) = RAF1 (human) (UniProt P04049)
CDK4 CCND1 (human) = CDK4 CCND1 (human) (UniProt P11802+P24385)
Chain of CDK4 CCND1 (human) (P11802 whole entry, looked up): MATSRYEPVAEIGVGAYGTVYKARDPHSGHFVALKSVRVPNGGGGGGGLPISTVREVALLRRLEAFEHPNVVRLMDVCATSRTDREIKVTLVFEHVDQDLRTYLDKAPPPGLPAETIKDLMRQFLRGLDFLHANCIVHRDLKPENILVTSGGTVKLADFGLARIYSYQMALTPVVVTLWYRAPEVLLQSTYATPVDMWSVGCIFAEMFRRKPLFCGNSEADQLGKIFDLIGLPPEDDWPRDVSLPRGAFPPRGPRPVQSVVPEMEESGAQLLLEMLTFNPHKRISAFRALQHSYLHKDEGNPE
Chain of CDK4 CCND1 (human) (P24385 whole entry, looked up): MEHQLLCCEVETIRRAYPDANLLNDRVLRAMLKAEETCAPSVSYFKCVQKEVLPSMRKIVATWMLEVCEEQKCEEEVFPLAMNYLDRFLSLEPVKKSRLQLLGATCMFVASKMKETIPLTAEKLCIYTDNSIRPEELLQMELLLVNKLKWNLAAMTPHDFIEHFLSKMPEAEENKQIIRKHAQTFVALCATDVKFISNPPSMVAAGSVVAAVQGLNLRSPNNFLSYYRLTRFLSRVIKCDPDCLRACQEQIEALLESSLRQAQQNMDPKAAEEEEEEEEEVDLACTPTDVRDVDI

AURKC (human) = AURKC (human) (UniProt Q9UQB9)
Chain of AURKC (human) (Q9UQB9 whole entry, looked up): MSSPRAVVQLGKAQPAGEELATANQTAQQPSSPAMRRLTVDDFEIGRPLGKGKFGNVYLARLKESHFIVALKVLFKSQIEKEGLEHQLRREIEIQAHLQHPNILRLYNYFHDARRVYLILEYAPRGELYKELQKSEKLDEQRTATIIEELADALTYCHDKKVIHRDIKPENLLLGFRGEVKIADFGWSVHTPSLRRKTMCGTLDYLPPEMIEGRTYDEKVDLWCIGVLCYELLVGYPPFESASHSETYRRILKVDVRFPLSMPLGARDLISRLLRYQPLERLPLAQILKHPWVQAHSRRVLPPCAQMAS

CLK4 (human) = CLK4 (human) (UniProt Q9HAZ1)
CSNK1G3 (human) = CSNK1G3 (human) (UniProt Q9Y6M4)
Chain of CSNK1G3 (human) (Q9Y6M4 whole entry, looked up): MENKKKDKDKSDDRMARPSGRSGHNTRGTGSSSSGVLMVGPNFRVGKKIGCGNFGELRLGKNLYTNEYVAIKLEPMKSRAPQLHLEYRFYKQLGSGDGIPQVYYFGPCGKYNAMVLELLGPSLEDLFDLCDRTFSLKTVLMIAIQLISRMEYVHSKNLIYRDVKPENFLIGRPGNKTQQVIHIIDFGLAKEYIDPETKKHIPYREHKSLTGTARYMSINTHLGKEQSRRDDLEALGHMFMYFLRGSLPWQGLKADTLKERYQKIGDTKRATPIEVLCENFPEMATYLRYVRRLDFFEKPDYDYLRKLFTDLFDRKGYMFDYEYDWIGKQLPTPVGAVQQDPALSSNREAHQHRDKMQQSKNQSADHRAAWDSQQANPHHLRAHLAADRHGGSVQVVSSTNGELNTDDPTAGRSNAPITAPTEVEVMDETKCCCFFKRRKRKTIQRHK

ACVRL1 (human) = ACVRL1 (human) (UniProt P37023)
BRAF (human) = BRAF (human) (UniProt P15056)

Chain of SRC (human) (P12931 whole entry, looked up): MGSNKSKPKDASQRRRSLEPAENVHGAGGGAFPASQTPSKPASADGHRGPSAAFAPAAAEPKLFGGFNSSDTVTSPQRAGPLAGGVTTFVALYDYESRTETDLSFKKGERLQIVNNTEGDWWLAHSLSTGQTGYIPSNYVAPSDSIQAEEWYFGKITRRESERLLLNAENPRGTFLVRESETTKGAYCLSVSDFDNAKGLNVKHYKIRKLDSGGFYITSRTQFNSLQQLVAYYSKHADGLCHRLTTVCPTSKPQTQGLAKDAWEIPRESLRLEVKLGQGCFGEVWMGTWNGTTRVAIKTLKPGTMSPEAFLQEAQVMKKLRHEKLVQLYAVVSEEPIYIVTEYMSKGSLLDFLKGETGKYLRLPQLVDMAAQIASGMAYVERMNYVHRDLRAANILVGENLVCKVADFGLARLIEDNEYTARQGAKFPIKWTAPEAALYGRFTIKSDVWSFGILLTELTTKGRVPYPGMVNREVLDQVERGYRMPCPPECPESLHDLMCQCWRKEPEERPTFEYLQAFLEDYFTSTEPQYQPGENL
Chain of PRKX (human) (P51817 whole entry, looked up): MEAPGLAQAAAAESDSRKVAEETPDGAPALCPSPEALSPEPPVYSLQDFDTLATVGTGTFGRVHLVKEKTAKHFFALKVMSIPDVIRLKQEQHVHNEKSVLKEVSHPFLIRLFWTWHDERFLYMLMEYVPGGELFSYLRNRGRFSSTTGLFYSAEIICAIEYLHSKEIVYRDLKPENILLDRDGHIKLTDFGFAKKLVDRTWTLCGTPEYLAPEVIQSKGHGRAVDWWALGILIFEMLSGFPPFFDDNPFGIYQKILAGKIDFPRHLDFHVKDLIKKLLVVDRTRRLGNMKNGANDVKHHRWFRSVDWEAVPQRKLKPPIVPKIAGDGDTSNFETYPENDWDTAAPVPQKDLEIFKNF

Structure (SMILES) | kinase still bound, per cent of control (CDKL5 (human)) [%] | kinase still bound, per cent of control (SRC (human)) [%] | kinase still bound, per cent of control (MYLK (human)) [%] | kinase still bound, per cent of control [1] [%] | kinase still bound, per cent of control (PRKX (human)) [%] | kinase still bound, per cent of control (CDK7 (human)) [%] | kinase still bound, per cent of control (PI4KB (human)) [%] | kinase still bound, per cent of control (EPHA5 (human)) [%] | kinase still bound, per cent of control (STK17B (human)) [%] | kinase still bound, per cent of control (MAPKAPK5 (human)) [%] | kinase still bound, per cent of control (ERBB3 (human)) [%] | kinase still bound, per cent of control (CSNK2A2 (human)) [%] | kinase still bound, per cent of control (STK39 (human)) [%] | kinase still bound, per cent of control (ACVR2B (human)) [%] | kinase still bound, per cent of control (MAP4K1 (human)) [%] | kinase still bound, per cent of control (NTRK2 (human)) [%] | kinase still bound, per cent of control (CSNK1D (human)) [%] | kinase still bound, per cent of control (DCLK3 (human)) [%] | kinase still bound, per cent of control (NEK4 (human)) [%] | kinase still bound, per cent of control (ADCK4 (human)) [%] | other results
CN(C)C/C=C/C(=O)Nc1ccc(C(=O)Nc2cccc(Nc3nccc(-c4cccnc4)n3)c2)cc1 | 60 | 100 | 64 | 0.6 | 100 | 3.2 | 51 | 97 | 19 | 100 | 57 | 5.2 | 58 | 98 | 100 | 69 | 20 | 100 | 100 | 98 | kinase still bound, per cent of control (MAP4K2 (human)): 9%; kinase still bound, per cent of control [2]: 74%; kinase still bound, per cent of control (EIF2AK1 (human)): 100%; kinase still bound, per cent of control (OXSR1 (human)): 100%; kinase still bound, per cent of control [3]: 65%; kinase still bound, per cent of control (AURKA (human)): 11%; kinase still bound, per cent of control (RAF1 (human)): 100%; kinase still bound, per cent of control (CDK4 CCND1 (human)): 100%; kinase still bound, per cent of control (AURKC (human)): 5.5%; kinase still bound, per cent of control (CLK4 (human)): 2.2%; kinase still bound, per cent of control (CSNK1G3 (human)): 100%; kinase still bound, per cent of control (ACVRL1 (human)): 97%
C[C@@H](Oc1cc(-c2cnn(C3CCNCC3)c2)cnc1N)c1c(Cl)ccc(F)c1Cl | 25 | 0.55 | 82 | 1.8 | 94 | 1.2 | 100 | 1.8 | 100 | 68 | 81 | 55 | 99 | 38 | 4.6 | 0.2 | 100 | 42 | 25 | 3.4 | kinase still bound, per cent of control (BRAF (human)): 53%; kinase still bound, per cent of control (RAF1 (human)): 93%; kinase still bound, per cent of control (CDK4 CCND1 (human)): 51%; kinase still bound, per cent of control (AURKC (human)): 3.4%; kinase still bound, per cent of control (CLK4 (human)): 100%; kinase still bound, per cent of control (CSNK1G3 (human)): 100%; kinase still bound, per cent of control (ACVRL1 (human)): 45%
COc1cc2ncnc(-n3nc(-c4ccccn4)nc3N)c2cc1OC | 0.3 | 6.7 | 0.8 | 0.4 | 79 | 5.4 | 9.8 | 19 | 9.4 | 100 | 9 | 5.2 | 80 | 49 | 56 | 47 | 2.8 | 100 | 41 | 14 | kinase still bound, per cent of control (MAP4K2 (human)): 43%; kinase still bound, per cent of control [2]: 66%; kinase still bound, per cent of control (EIF2AK1 (human)): 51%; kinase still bound, per cent of control (OXSR1 (human)): 42%; kinase still bound, per cent of control [3]: 67%; kinase still bound, per cent of control (AURKA (human)): 15%; kinase still bound, per cent of control (RAF1 (human)): 59%; kinase still bound, per cent of control (CDK4 CCND1 (human)): 47%; kinase still bound, per cent of control (AURKC (human)): 6.2%; kinase still bound, per cent of control (CLK4 (human)): 2.2%; kinase still bound, per cent of control (CSNK1G3 (human)): 20%; kinase still bound, per cent of control (ACVRL1 (human)): 15%
C=CC(=O)Nc1cc(-n2c(=O)ccc3cnc4ccc(-c5cn[nH]c5)cc4c32)ccc1C | 3.3 | 100 | 70 | 34 | 100 | 3.8 | 2.3 | 100 | 100 | 78 | 94 | 1.2 | 64 | 21 | 90 | 51 | 47 | 100 | 83 | 86 | kinase still bound, per cent of control (MAP4K2 (human)): 9.4%; kinase still bound, per cent of control [2]: 68%; kinase still bound, per cent of control (EIF2AK1 (human)): 100%; kinase still bound, per cent of control (OXSR1 (human)): 79%; kinase still bound, per cent of control [3]: 1.4%; kinase still bound, per cent of control (AURKA (human)): 63%; kinase still bound, per cent of control (RAF1 (human)): 100%; kinase still bound, per cent of control (CDK4 CCND1 (human)): 100%; kinase still bound, per cent of control (AURKC (human)): 100%; kinase still bound, per cent of control (CLK4 (human)): 3%; kinase still bound, per cent of control (CSNK1G3 (human)): 84%; kinase still bound, per cent of control (ACVRL1 (human)): 42%
O=C(Nc1cccc(Nc2ncc(Br)c(NCCc3cnc[nH]3)n2)c1)N1CCCC1 | 1.8 | 4 | 34 | 0.2 | 0.2 | 0.55 | 35 | 92 | 2.4 | 28 | 41 | 0 | 63 | 4.9 | 13 | 0.45 | 73 | 48 | 9.4 | 33 | kinase still bound, per cent of control (MAP4K2 (human)): 0.15%; kinase still bound, per cent of control [2]: 0.05%; kinase still bound, per cent of control (EIF2AK1 (human)): 100%; kinase still bound, per cent of control (OXSR1 (human)): 25%; kinase still bound, per cent of control [3]: 2%; kinase still bound, per cent of control (AURKA (human)): 1.6%; kinase still bound, per cent of control (RAF1 (human)): 100%; kinase still bound, per cent of control (CDK4 CCND1 (human)): 0.25%; kinase still bound, per cent of control (AURKC (human)): 0%; kinase still bound, per cent of control (CLK4 (human)): 28%; kinase still bound, per cent of control (CSNK1G3 (human)): 88%; kinase still bound, per cent of control (ACVRL1 (human)): 100%
